For one assay, the system named is C. albicans. The assay is described as follows: Minimum Inhibitory Concentration (MIC) (C. albicans), CLSI M27-A2. The assay is classed as cell-based. To be noted: Candida albicans; about 50% growth reduction; approximately 48 h at 35±1° C. Here is the method: A. Minimum Inhibitory Concentration (MIC) (C. albicans) Compounds of the present disclosure were assessed for their ability to inhibit the growth of common strains of fungus, C. albicans using a standardized procedure (CLSI M27-A2). Stock solutions of the test compounds and standards were prepared in DMSO at 1,600 μg/mL (C. albicans). Eleven, serial, one-half dilutions of compounds were prepared in 96-well plates in RPMI+MOPS. The assay concentration ranges were 8-0.001 μg/mL (C. albicans). Cell suspensions of C. albicans were prepared and added to each well at concentrations of approximately 3.7×10^3 colony-forming-units per milliliter (cfu/mL). All testing was in duplicate. The inoculated plates were incubated for approximately 48 h at 35±1° C. At the completion of incubation the wells of each plate were evaluated visually for the presence of fungal growth. […] For QC purposes C. krusei isolate ATCC 6258 (4.0×10^3 cfu/mL) was included in the VOR assay.

The next assay addresses T1, CYP2C9 (Homo sapiens, UniProt P11712).
T1 construct: from tissue; host or cells: pooled human liver microsomes
The assay is described as follows: Inhibition of liver cytochrome P450 enzymes, isozyme 2C9. The class given is in vitro ADME. To be noted: pooled human liver microsomes. Here is the method:
(§1) B. […] Solutions of each test compound were separately prepared at concentrations of 20000, 6000, 2000, 600, 200, and 60 μM by serial dilution with DMSO:acetonitrile (MeCN) (50:50 v/v). The individual test compound solutions were then diluted 20-fold with DMSO:MeCN:deionized water (5:5:180 v/v/v) to concentrations of 1000, 300, 100, 30, 10, and 3 μM. […] The mixed inhibitor solutions were then diluted 20-fold with DMSO:MeCN:deionized water (5:5:180 v/v/v) to concentrations of 300, 100, 30, 10, 3, 1, 0.3, and 0.1 μM. The percent of organic solvent attributable to the test compound or inhibitor mixture in the final reaction mixture was 2% v/v. Pooled human liver microsome suspension (20 mg/mL) was diluted with phosphate buffer to obtain a 5 mg/mL suspension. A solution of NADPH was prepared in phosphate buffer at a concentration of 5 mM. Separate stock solutions of each substrate were prepared in DMSO:MeCN (50:50 v/v), mixed, and diluted in phosphate buffer to obtain a single solution containing each substrate at five times its experimentally determined Km concentration. […] A portion of the supernatant was analyzed by gradient reverse-phase HPLC with detection by electrospray ionization triple quadrupole mass spectrometry in the positive ion mode. Data was fitted to sigmoid dose-response curves and the inhibitory potency of each test compound was determined as its IC50 value.

A further assay concerns the target T2, CYP2C19 (Homo sapiens, UniProt P33261).
T2 construct: from tissue; host or cells: pooled human liver microsomes
The assay is described as follows: Inhibition of liver cytochrome P450 enzymes, isozyme 2C19. The class given is in vitro ADME. Particulars: pooled human liver microsomes. As to the method:
as §1

For a further assay, the target named is T3, CYP3A4 (Homo sapiens, UniProt P08684).
T3 construct: from tissue; host or cells: pooled human liver microsomes
T3 sequence (P08684 whole entry): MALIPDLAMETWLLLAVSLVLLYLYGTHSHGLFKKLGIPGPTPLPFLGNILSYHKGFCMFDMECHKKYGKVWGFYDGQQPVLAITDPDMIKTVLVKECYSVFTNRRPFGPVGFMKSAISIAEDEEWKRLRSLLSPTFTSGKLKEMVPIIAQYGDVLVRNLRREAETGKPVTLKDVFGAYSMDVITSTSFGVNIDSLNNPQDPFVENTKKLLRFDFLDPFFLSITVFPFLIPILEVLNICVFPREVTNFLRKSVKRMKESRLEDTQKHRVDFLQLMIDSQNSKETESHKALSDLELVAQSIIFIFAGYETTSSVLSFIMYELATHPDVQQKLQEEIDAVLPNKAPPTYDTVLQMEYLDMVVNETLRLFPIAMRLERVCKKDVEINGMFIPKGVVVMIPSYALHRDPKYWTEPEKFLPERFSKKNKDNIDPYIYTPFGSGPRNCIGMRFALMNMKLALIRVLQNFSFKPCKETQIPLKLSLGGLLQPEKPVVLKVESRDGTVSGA
The assay is described as follows: Inhibition of liver cytochrome P450 enzymes, isozyme 3A4. To be noted: pooled human liver microsomes. The assay is classed as in vitro ADME. As to the method:
as §1

The subject of assay [1] is Septoria tritici (ATCC 26517). The assay can be described thus: Minimum Inhibitory Concentration (MIC) vs. Septoria tritici. The class given is cell-based. Particulars: Zymoseptoria tritici, ATCC26517, 168 h; 50% reduction in growth of S. tritici; 22° C., seven days; read-out: Septoria Rating (MIC). The method, boiled down: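 Growth inhibition of S. tritici by CLSI-based filamentous-fungus microdilution, 2-fold series 16 to 0.016 μg/mL in RPMI-1640/MOPS with 2% DMSO. Inoculum approximately 5×10^4 cfu/mL; plates incubated 22° C, seven days, dark, unshaken.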

The test system of assay [2] is Puccinia recondita tritici = Puccinia triticina. The assay can be described thus: Fungicidal activity vs. leaf rust on wheat plants. The class given is in vivo. Particulars: 50 ppm spray on wheat (Yuma), inoculated the following day, evaluated 7-9 days later; read-out: Puccinia Rating (% Disease Control @ 50 ppm). The method, boiled down: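 Wheat seedlings were sprayed to wetness with compound at 50 ppm in 10% acetone/Triton X100 water, at about 1500 L/ha. They were inoculated with P. recondita tritici spores the following day and held overnight at high humidity before greenhouse growth. Disease severity was rated 7-9 days later on a rating scale.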

Structures are written as SMILES. pIC50: −log10 of the molar value. In brackets after ≈: the same amount, converted by molar mass.

T1 sequence (P11712 whole entry): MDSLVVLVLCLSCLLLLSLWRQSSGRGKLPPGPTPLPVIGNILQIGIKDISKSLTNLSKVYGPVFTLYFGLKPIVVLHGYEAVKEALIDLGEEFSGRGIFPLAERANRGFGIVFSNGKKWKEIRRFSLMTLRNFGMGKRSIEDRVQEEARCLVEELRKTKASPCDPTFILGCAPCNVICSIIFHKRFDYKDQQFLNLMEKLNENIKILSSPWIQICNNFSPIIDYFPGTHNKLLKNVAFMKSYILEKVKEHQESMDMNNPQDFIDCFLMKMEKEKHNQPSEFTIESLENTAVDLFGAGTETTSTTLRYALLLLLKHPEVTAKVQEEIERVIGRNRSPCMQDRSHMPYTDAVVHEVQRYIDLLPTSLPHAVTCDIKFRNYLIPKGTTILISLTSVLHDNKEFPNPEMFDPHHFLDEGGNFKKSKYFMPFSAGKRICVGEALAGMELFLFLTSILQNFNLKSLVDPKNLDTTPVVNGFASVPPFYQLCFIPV
T2 sequence (P33261 whole entry): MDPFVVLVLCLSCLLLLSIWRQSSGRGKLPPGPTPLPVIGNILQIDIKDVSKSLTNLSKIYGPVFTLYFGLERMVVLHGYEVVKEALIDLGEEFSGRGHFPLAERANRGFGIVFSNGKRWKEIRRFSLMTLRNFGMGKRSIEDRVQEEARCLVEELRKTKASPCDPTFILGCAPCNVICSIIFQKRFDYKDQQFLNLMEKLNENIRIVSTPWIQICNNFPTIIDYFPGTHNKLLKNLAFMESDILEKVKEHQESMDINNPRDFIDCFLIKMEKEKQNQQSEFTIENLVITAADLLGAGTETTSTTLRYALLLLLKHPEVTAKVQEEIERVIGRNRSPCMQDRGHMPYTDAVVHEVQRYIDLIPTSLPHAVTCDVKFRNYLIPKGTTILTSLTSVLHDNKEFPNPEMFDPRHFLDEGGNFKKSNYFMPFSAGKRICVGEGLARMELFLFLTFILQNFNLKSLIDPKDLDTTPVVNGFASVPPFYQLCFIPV

`N#Cc1ccc(Oc2ccc(C(F)(F)C(O)(Cn3cnnn3)c3ccc(F)cc3F)nc2)cc1` (stereo not drawn) [Compound 5, 4-(6-(2-(2,4-Difluorophenyl)-1,1-difluoro-2-hydroxy-3-(1H-tetrazol-1-yl)propyl)pyridin-3-yloxy)benzonitrile]: the MIC was 0.031 µg/mL (≈ 0.0659 µM) in the assay with C. albicans and no more than 0.5 µg/mL in assay [1]. Also, the figures for the negative logarithm of the IC50 (pIC50) against CYP2C9, against CYP2C19 and on CYP3A4 were 4.51, 4.80 and 4.80, respectively. For the same compound, the pest or weed control at 50 ppm in assay [2] lay in the range of 80 to 100%.

In the assay with C. albicans, `C[C@@H](c1ncncc1F)[C@](O)(Cn1cncn1)c1ccc(F)cc1F` [Voriconazole, reference compound] showed an MIC of 0.016 µg/mL (≈ 0.0458 µM).

`OC(Cn1cnnn1)(c1ccc(F)cc1F)C(F)(F)c1ccc(OCc2cccc(F)c2)cn1` (stereo not drawn) [Compound 3, 2-(2,4-Difluorophenyl)-1,1-difluoro-1-(5-(3-fluorobenzyloxy)pyridin-2-yl)-3-(1H-tetrazol-1-yl)propan-2-ol]: the MIC in the assay on C. albicans was 0.002 µg/mL (≈ 0.00419 µM); in assay [1], no more than 0.5 µg/mL. Besides, the pIC50 was 4.92 against CYP2C9, 4.96 at CYP2C19 and 5.08 on CYP3A4. For the same compound, the pest or weed control at 50 ppm in assay [2] was 80 to 100%.

`OC(Cn1cnnn1)(c1ccc(F)cc1F)C(F)(F)c1ccc(OCC(F)(F)c2ccc(OC(F)F)cc2)cn1` (stereo not drawn) [Compound 120, 1-(5-(2-(4-(difluoromethoxy)phenyl)-2,2-difluoroethoxy)pyridin-2-yl)-2-(2,4-difluorophenyl)-1,1-difluoro-3-(1H-tetrazol-1-yl)propan-2-ol]: the MIC in assay [1] was no more than 0.5 µg/mL. In addition, the pest or weed control at 50 ppm in assay [2] was in the range of 80 to 100%.

As to `N#Cc1ccc(F)c(COc2ccc(C(F)(F)C(O)(Cn3cnnn3)c3ccc(F)cc3F)nc2)c1` (stereo not drawn) [Compound 59, 3-(((6-(2-(2,4-Difluorophenyl)-1,1-difluoro-2-hydroxy-3-(1H-tetrazol-1-yl)propyl)pyridin-3-yl)oxy)methyl)-4-fluorobenzonitrile], the MIC in assay [1] was no more than 0.5 µg/mL. In addition, in assay [2], the pest or weed control at 50 ppm was 80 to 100%.

For the compound `OC(Cn1cnnn1)(c1ccc(F)cc1F)C(F)(F)c1ccc(OCC2CC2)cn1` (stereo not drawn) [Compound 39, 1-(5-(Cyclopropylmethoxy)pyridin-2-yl)-2-(2,4-difluorophenyl)-1,1-difluoro-3-(1H-tetrazol-1-yl)propan-2-ol], the MIC in assay [1] was no more than 0.5 µg/mL. Further, the pest or weed control at 50 ppm in assay [2] was 80 to 100%.

`OC(Cn1cnnn1)(c1ccc(F)cc1F)C(F)(F)c1ccc(Oc2ccc(F)c(F)c2)cn1` (stereo not drawn) [Compound 86, 1-(5-(3,4-Difluorophenoxy)pyridin-2-yl)-2-(2,4-difluorophenyl)-1,1-difluoro-3-(1H-tetrazol-1-yl)propan-2-ol]: the MIC in assay [1] is no more than 0.5 µg/mL. Besides, the pest or weed control at 50 ppm in assay [2] fell in the range of 80 to 100%.

Turning to `CC(C)COc1ccc(C(F)(F)C(O)(Cn2cnnn2)c2ccc(F)cc2F)nc1` (stereo not drawn) [Compound 43, 2-(2,4-Difluorophenyl)-1,1-difluoro-1-(5-isobutoxypyridin-2-yl)-3-(1H-tetrazol-1-yl)propan-2-ol], in assay [1], the MIC was no more than 0.5 µg/mL. In assay [2], the pest or weed control at 50 ppm lay within 80 to 100%.

For `OC(Cn1cnnn1)(c1ccc(F)cc1F)C(F)(F)c1ccc(Oc2ccccc2F)cn1` (stereo not drawn) [Compound 88, 2-(2,4-Difluorophenyl)-1,1-difluoro-1-(5-(2-fluorophenoxy)pyridin-2-yl)-3-(1H-tetrazol-1-yl)propan-2-ol], the MIC in assay [1] was no more than 0.5 µg/mL. Also, the pest or weed control at 50 ppm in assay [2] is 80 to 100%.

In the case of `N#Cc1cccc(COc2ccc(C(F)(F)C(O)(Cn3cnnn3)c3ccc(F)cc3F)nc2)c1` (stereo not drawn) [Compound 52, 3-(((6-(2-(2,4-Difluorophenyl)-1,1-difluoro-2-hydroxy-3-(1H-tetrazol-1-yl)propyl)pyridin-3-yl)oxy)methyl)benzonitrile], the MIC in assay [1] is no more than 0.5 µg/mL. Further, the pest or weed control at 50 ppm in assay [2] lay within 80 to 100%.

As to `OC(Cn1cncn1)(Cn1cncn1)c1ccc(F)cc1F` [Fluconazole, reference compound], the MIC against C. albicans is 0.5 µg/mL (≈ 1.63 µM).

`N#Cc1ccc(CSc2ccc(C(F)(F)C(O)(Cn3cnnn3)c3ccc(F)cc3F)nc2)c(F)c1` (stereo not drawn) [Compound 15, 4-(((6-(2-(2,4-Difluorophenyl)-1,1-difluoro-2-hydroxy-3-(1H-tetrazol-1-yl)propyl)pyridin-3-yl)thio)methyl)-3-fluorobenzonitrile]: in assay [1], the MIC was no more than 0.5 µg/mL. Besides, the pest or weed control at 50 ppm in assay [2] lay in the range of 40 to 59%.

As for `CO/N=C/c1ccc(Oc2ccc(C(F)(F)C(O)(Cn3cnnn3)c3ccc(F)cc3F)nc2)nc1` (stereo not drawn) [Compound 102, (E)-6-((6-(2-(2,4-difluorophenyl)-1,1-difluoro-2-hydroxy-3-(1H-tetrazol-1-yl)propyl)pyridin-3-yl)oxy)nicotinaldehyde O-methyl oxime], the MIC in assay [1] is no more than 0.5 µg/mL. Moreover, the pest or weed control at 50 ppm in assay [2] lay within 80 to 100%.

For the compound `OC(Cn1cnnn1)(c1ccc(F)cc1F)C(F)(F)c1ccc(OCc2ccncc2)cn1` (stereo not drawn) [Compound 118, 2-(2,4-difluorophenyl)-1,1-difluoro-1-(5-(pyridin-4-ylmethoxy)pyridin-2-yl)-3-(1H-tetrazol-1-yl)propan-2-ol], the MIC in assay [1] was no more than 0.5 µg/mL. For the same compound, the pest or weed control at 50 ppm in assay [2] was less than 40%.

In the case of `OC(Cn1cnnn1)(c1ccc(F)cc1F)C(F)(F)c1ccc(Oc2ncc(C(F)(F)F)cc2Cl)cn1` (stereo not drawn) [Compound 92, 1-(5-((3-chloro-5-(trifluoromethyl)pyridin-2-yl)oxy)pyridin-2-yl)-2-(2,4-difluorophenyl)-1,1-difluoro-3-(1H-tetrazol-1-yl)propan-2-ol], the MIC in assay [1] was no more than 0.5 µg/mL. Further, the pest or weed control at 50 ppm in assay [2] was in the range of 80 to 100%.

For the origin of these results see US8748461B2, “Metalloenzyme inhibitor compounds” (Viamet Pharmaceuticals, Inc., priority 2011, dated 2014).
